The source made the active and inactive calls. No cut-off for these calls is given here.
Assays:
SR [1] = experiment: Cytotoxicity against human SR cells at 10 uM after 48 hrs by SRB assay; type: functional
[2] = Cytotoxicity against human IGROV1 cells at 10 uM after 48 hrs by SRB assay; type: functional; conditions: IGROV-1, 48 h, read-out: GI
[3] = Cytotoxicity against human COLO205 cells at 10 uM after 48 hrs by SRB assay; type: functional; conditions: COLO 205, 48 h, read-out: GI
MDA-MB-468 = experiment: Cytotoxicity against human MDA-MB-468 cells at 10 uM after 48 hrs by SRB assay; type: functional; conditions: MDA-MB-468, 48 h, read-out: GI
MDA-MB-231 = experiment: Cytotoxicity against human MDA-MB-231 cells at 10 uM after 48 hrs by SRB assay; type: functional; conditions: MDA-MB-231, 48 h, read-out: GI
[4] = Cytotoxicity against human OVCAR8 cells at 10 uM after 48 hrs by SRB assay; type: functional; conditions: OVCAR-8, 48 h, read-out: GI
[5] = Cytotoxicity against human HL-60(TB) cells after 48 hrs by SRB assay; type: functional; conditions: HL-60, 48 h, read-out: LC50 (the source's name)
MCF7 [6] = experiment: Cytotoxicity against human MCF7 cells at 10 uM after 48 hrs by SRB assay; type: functional; conditions: MCF7, 48 h, read-out: GI
NCI-H522 = experiment: Cytotoxicity against human NCI-H522 cells at 10 uM after 48 hrs by SRB assay; type: functional; conditions: NCI-H522, 48 h, read-out: GI
[7] = Cytotoxicity against human Hs 578T cells at 10 uM after 48 hrs by SRB assay; type: functional; conditions: read-out: GI
MCF7 [8] = experiment: Cytotoxicity against human MCF7 cells after 48 hrs by SRB assay; type: functional; conditions: MCF7, 48 h, pooled result: one value given for 6 cell lines, strains, targets or settings
[9] = Cytotoxicity against human SNB75 cells at 10 uM after 48 hrs by SRB assay; type: functional; conditions: SNB-75, 48 h, read-out: GI
[10] = Cytotoxicity against human SF539 cells at 10 uM after 48 hrs by SRB assay; type: functional; conditions: SF-539, 48 h, read-out: GI
ACHN = experiment: Cytotoxicity against human ACHN cells at 10 uM after 48 hrs by SRB assay; type: functional; conditions: read-out: GI
K562 [11] = experiment: Cytotoxicity against human K562 cells at 10 uM after 48 hrs by SRB assay; type: functional; conditions: K562, 48 h, read-out: GI
K562 [12] = experiment: Cytotoxicity against human K562 cells after 48 hrs by SRB assay; type: functional; conditions: K562, 48 h
[13] = Cytotoxicity against human HOP92 cells at 10 uM after 48 hrs by SRB assay; type: functional; conditions: HOP-92, 48 h, read-out: GI
SK-MEL-5 = experiment: Cytotoxicity against human SK-MEL-5 cells at 10 uM after 48 hrs by SRB assay; type: functional; conditions: SK-MEL-5, 48 h, read-out: GI
[14] = Cytotoxicity against human MOLT4 cells after 48 hrs by SRB assay; type: functional; conditions: MOLT-4, 48 h, read-out: LC50 (the source's name)
Dihydrofolate reductase = target: T1, Dihydrofolate reductase (Homo sapiens, UniProt P00374); experiment: Inhibition of human recombinant DHFR expressed in Escherichia coli by spectrophotometric analysis
T1 sequence (P00374 whole entry): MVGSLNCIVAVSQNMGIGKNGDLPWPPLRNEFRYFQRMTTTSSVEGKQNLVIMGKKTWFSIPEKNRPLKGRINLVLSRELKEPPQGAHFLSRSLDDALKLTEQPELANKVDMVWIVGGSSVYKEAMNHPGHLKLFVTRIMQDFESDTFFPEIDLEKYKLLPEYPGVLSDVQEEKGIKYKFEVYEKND

[15] = Cytotoxicity against human SF268 cells after 48 hrs by SRB assay; type: functional; conditions: SF-268, 48 h, pooled result: one value given for 6 cell lines, strains, targets or settings
Malme-3M = experiment: Cytotoxicity against human MALME-3M cells at 10 uM after 48 hrs by SRB assay; type: functional; conditions: read-out: GI
A549 = experiment: Cytotoxicity against human A549 cells after 48 hrs by SRB assay; type: functional; conditions: A549, 48 h, pooled result: one value given for 8 cell lines, strains, targets or settings
A498 = experiment: Cytotoxicity against human A498 cells at 10 uM after 48 hrs by SRB assay; type: functional; conditions: A498, 48 h, read-out: GI
Calf thymus DNA [16] = experiment: Binding affinity to calf thymus DNA assessed as melting temperature by spectrophotometric analysis (reference value: 60 degC); type: nucleic-acid assay; conditions: Bos taurus
[17] = Cytotoxicity against human MOLT4 cells at 10 uM after 48 hrs by SRB assay; type: functional; conditions: MOLT-4, 48 h, read-out: GI
[18] = Cytotoxicity against human SW620 cells at 10 uM after 48 hrs by SRB assay; type: functional; conditions: SW-620, 48 h, read-out: GI
NCI-H322M = experiment: Cytotoxicity against human NCI-H322M cells at 10 uM after 48 hrs by SRB assay; type: functional; conditions: read-out: GI
[19] = Cytotoxicity against human SF268 cells at 10 uM after 48 hrs by SRB assay; type: functional; conditions: SF-268, 48 h, read-out: GI
[20] = Cytotoxicity against human Caki1 cells at 10 uM after 48 hrs by SRB assay; type: functional; conditions: CAKI-1, 48 h, read-out: GI
HT-29 = experiment: Cytotoxicity against human HT-29 cells at 10 uM after 48 hrs by SRB assay; type: functional; conditions: HT-29, 48 h, read-out: GI
NCI-H460 = experiment: Cytotoxicity against human NCI-H460 cells at 10 uM after 48 hrs by SRB assay; type: functional; conditions: NCI-H460, 48 h, read-out: GI
[21] = Cytotoxicity against human HCT116 cells at 10 uM after 48 hrs by SRB assay; type: functional; conditions: HCT-116, 48 h, read-out: GI
Calf thymus DNA [22] = experiment: Binding affinity to calf thymus DNA by fluorescence spectrophotometric analysis; type: nucleic-acid assay; conditions: Bos taurus
786-0 = experiment: Cytotoxicity against human 786-0 cells at 10 uM after 48 hrs by SRB assay; type: functional; conditions: 786-0, 48 h, read-out: GI
[23] = Cytotoxicity against human RXF393 cells at 10 uM after 48 hrs by SRB assay; type: functional; conditions: RXF 393, 48 h, read-out: GI
SR [24] = experiment: Cytotoxicity against human SR cells after 48 hrs by SRB assay; type: functional
KM12 = experiment: Cytotoxicity against human KM12 cells at 10 uM after 48 hrs by SRB assay; type: functional; conditions: KM12, 48 h, read-out: GI
[25] = Cytotoxicity against human PC3 cells after 48 hrs by SRB assay; type: functional; conditions: PC-3, 48 h; for GI50 / TGI: pooled result: one value given for 2 cell lines, strains, targets or settings
T47D = experiment: Cytotoxicity against human T47D cells at 10 uM after 48 hrs by SRB assay; type: functional; conditions: read-out: GI
SK-MEL-2 = experiment: Cytotoxicity against human SK-MEL-2 cells at 10 uM after 48 hrs by SRB assay; type: functional; conditions: SK-MEL-2, 48 h, read-out: GI
[26] = Cytotoxicity against human OVCAR5 cells at 10 uM after 48 hrs by SRB assay; type: functional; conditions: OVCAR-5, 48 h, read-out: GI

Cc1nc2ccc(Nc3nc(Cl)nc(Nc4ccc(F)cc4)n3)cc2n1Cc1ccccc1
inhibition of growth at 10 µM (SR [1]; read-out: GI): 63.9%
inhibition of growth at 10 µM [2]: 33.3%
inhibition of growth at 10 µM [3]: 8.82%
inhibition of growth at 10 µM (MDA-MB-468): 30.3%
inhibition of growth at 10 µM (MDA-MB-231): 25.9%
inhibition of growth at 10 µM [4]: 57.7%
CC50 [5]: > 100 µM
inhibition of growth at 10 µM (MCF7 [6]): 37.4%
inhibition of growth at 10 µM (NCI-H522): 77.5%
inhibition of growth at 10 µM [7]: 11.1%
GI50 (MCF7 [8]): 4.21 µM
LC50 (concentration killing 50% of cells) (MCF7 [8]): 75.8 µM
TGI (MCF7 [8]): 11.9 µM
inhibition of growth at 10 µM [9]: 4.24%
inhibition of growth at 10 µM [10]: 1.83%
inhibition of growth at 10 µM (ACHN): 28.4%
inhibition of growth at 10 µM (K562 [11]): 63.1%
LC50 (K562 [12]): > 100 µM
inhibition of growth at 10 µM [13]: 21.2%
inhibition of growth at 10 µM (SK-MEL-5): 30.8%
CC50 [14]: > 100 µM
IC50 (Dihydrofolate reductase): 0.31 µM
GI50 [15]: 6.39 µM
LC50 (concentration killing 50% of cells) [15]: 43.5 µM
TGI [15]: 24.3 µM
inhibition of growth at 10 µM (Malme-3M): 11.5%
GI50 (A549): 6.23 µM
LC50 (A549): 69.6 µM
TGI (A549): 20.3 µM
inhibition of growth at 10 µM (A498): 22.2%
Tm (Calf thymus DNA [16]): 57 °C
inhibition of growth at 10 µM [17]: 41.1%
inhibition of growth at 10 µM [18]: 17.2%
inhibition of growth at 10 µM (NCI-H322M): 11.9%
inhibition of growth at 10 µM [19]: 24.6%
inhibition of growth at 10 µM [20]: 13.1%
inhibition of growth at 10 µM (HT-29): 15.8%
inhibition of growth at 10 µM (NCI-H460): 20.1%
inhibition of growth at 10 µM [21]: 55.8%
Ka (Calf thymus DNA [22]): 2.97 ×10⁴ /M
inhibition of growth at 10 µM (786-0): 20.4%
inhibition of growth at 10 µM [23]: 15.4%
LC50 (concentration killing 50% of cells) (SR [24]): > 100 µM
inhibition of growth at 10 µM (KM12): 27.2%
LC50 [25]: 52.5 µM
GI50 [25]: 8.27 µM
TGI [25]: 27.7 µM
inhibition of growth at 10 µM (T47D): 63.2%

Cc1nc2cc(Nc3nc(Nc4ccc(F)cc4)nc(-c4ccc(Cl)cc4)n3)ccc2n1Cc1ccccc1
growth inhibition (GI) (SR [1]): Active
inhibition of growth at 10 µM [2]: 51.3%
inhibition of growth at 10 µM [3]: 38.2%
inhibition of growth at 10 µM (MDA-MB-468): 25.7%
inhibition of growth at 10 µM (MDA-MB-231): 34%
inhibition of growth at 10 µM [4]: 37.2%
CC50 [5]: > 100 µM
inhibition of growth at 10 µM (MCF7 [6]): 57.6%
inhibition of growth at 10 µM (NCI-H522): 17.2%
inhibition of growth at 10 µM [7]: 24.6%
GI50 (MCF7 [8]): 6.46 µM
LC50 (concentration killing 50% of cells) (MCF7 [8]): > 100 µM
TGI (MCF7 [8]): 50.8 µM
inhibition of growth at 10 µM [9]: 34.8%
inhibition of growth at 10 µM [10]: 7.42%
inhibition of growth at 10 µM (ACHN): 28.4%
inhibition of growth at 10 µM (K562 [11]): 66.3%
LC50 (K562 [12]): > 100 µM
inhibition of growth at 10 µM [13]: 65%
inhibition of growth at 10 µM (SK-MEL-5): 16.6%
CC50 [14]: > 100 µM
inhibition of growth at 10 µM (SK-MEL-2): 16.4%
IC50 (Dihydrofolate reductase): 42.4 µM
GI50 [15]: 8.44 µM
LC50 (concentration killing 50% of cells) [15]: 61.4 µM
TGI [15]: 48.6 µM
inhibition of growth at 10 µM (Malme-3M): 27.5%
inhibition of growth at 10 µM [26]: 7.71%
GI50 (A549): 8.37 µM
LC50 (A549): 83.8 µM
TGI (A549): 38.6 µM
inhibition of growth at 10 µM (A498): 29.7%
inhibition of growth at 10 µM [17]: 99.2%
inhibition of growth at 10 µM [18]: 31.9%
inhibition of growth at 10 µM (NCI-H322M): 5.98%
inhibition of growth at 10 µM [19]: 45.1%
inhibition of growth at 10 µM [20]: 9.6%
inhibition of growth at 10 µM (HT-29): 44.2%
inhibition of growth at 10 µM (NCI-H460): 28.9%
inhibition of growth at 10 µM [21]: 49.7%
Ka (Calf thymus DNA [22]): 1.97 ×10⁴ /M
inhibition of growth at 10 µM (786-0): 8.96%
inhibition of growth at 10 µM [23]: 31.5%
LC50 (concentration killing 50% of cells) (SR [24]): > 100 µM
inhibition of growth at 10 µM (KM12): 62.8%
LC50 [25]: > 100 µM
GI50 [25]: 13.5 µM
TGI [25]: > 100 µM
inhibition of growth at 10 µM (T47D): 69.3%

Reference: ChEMBL document CHEMBL3745645, “Synthesis, in vitro antitumor activity, dihydrofolate reductase inhibition, DNA intercalation and structure-activity relationship studies of 1,3,5-triazine analogues” (Bioorg Med Chem Lett, 2016)
